Here are results for 1 compound from patent publication US12059472B2 (Bayer Aktiengesellschaft, priority 2016, dated 2024).

Series [1] in a line: Caco-2 flux assay for cell permeability. Particulars: human; Caco-2, basal to apical, 2 hours. It counts as in vitro ADME. Here is the method:
The cell permeability of a substance can be investigated by means of in vitro testing in a flux assay using Caco-2 cells [M. D. Troutman and D. R. Thakker, Pharm. […] For this purpose, the cells were cultured for 15-16 days on 24-well filter plates. For the determination of permeation, the respective test substance was applied in a HEPES buffer to the cells either apically (A) or basally (B) and incubated for 2 hours. After 0 hours and after 2 hours, samples were taken from the cis and trans compartments. The samples were separated by HPLC (Agilent 1200, Böblingen, Germany) using reverse phase columns. The HPLC system was coupled via a Turbo Ion Spray Interface to a Triple Quadropol mass spectrometer API 4000 (AB SCIEX Deutschland GmbH, Darmstadt, Germany).
Of critical importance for toxophors which are released intracellularly is the permeability from B to A [Papp (B-A)] and the ratio of Papp (B-A) to Papp (A-B) (efflux ratio): the lower this permeability, the slower the active and passive transport processes of the substance through the monolayer of Caco-2 cells.
For orientation: Caco-2 monolayers are a common model of the intestinal barrier.

Series [2] deals with KPL4: human breast cancer cell line. The experiment in a line: Cytotoxic effect on KPL4 cells (MTT assay). Particulars: Table 2, active metabolites. It counts as cell-based. How it is done:
The analysis of the cytotoxic effects of the ADCs was carried out with various cell lines: • NCI-H292: human mucoepidermoid lung carcinoma cells, ATCC-CRL-1848, standard medium: RPMI 1640 (Biochrom; #FG1215, stab. glutamine)+10% FCS (Sigma; #F2442), TWEAKR-positive; EGFR-positive. • BxPC3: human pancreas carcinoma cells, ATCC-CRL-1687, standard medium: RPMI 1640 (Biochrom; #FG1215, stab. glutamine)+10% FCS (Sigma; #F2442), TWEAKR-positive. • LoVo human colorectal cancer cells, ATCC No. CCL-229, cultivation for MTT assay: standard medium: Kaighn's+L-glutamine (Invitrogen 21127)+10% heat inactivated FCS (from Gibco, No. 10500-064). Cultivation for CTG assay: RPMI 1640 (Biochrom; #FG1215, stab. glutamine)+10% FCS (Sigma #F2442). […]
The cells were cultivated by the standard method, with the growth media specified under C-1a. […] After 96 h, the cell proliferation was detected using the MTT assay (ATCC, Manassas, Virginia, USA, catalogue No. 30-1010K). […] The dye formed was detected at 570 nm (Infinite M1000 pro, Tecan). The measured data were used to calculate the IC50 of the growth inhibition using the DRC (dose response curve). […]
For orientation: Formazan colour is commonly taken as a measure of viable cells.

The test system of series [3] is SK-HEP-1: human liver cell cancer line. The experiment in a line: Cytotoxic effect on SK-HEP-1 cells (MTT assay). The settings on record: SK-HEP1, Table 2, active metabolites. In kind it is cell-based. Here is the method:
(§1) The cells were cultivated by the standard method as stated by the American Tissue Culture Collection (ATCC) or the Leibniz-Institut DSMZ-Deutsche Sammlung von Mikroorganismen und Zellkulturen GmbH (DSMZ) for the cell lines in question.
The cells were then incubated in an incubator at 37° C. and 5% carbon dioxide. After 48 h, the medium was replaced. […] To this end, the MTT reagent was incubated with the cells for 4 h, followed by lysis of the cells overnight by addition of the detergent. The dye formed was detected at 570 nm (Infinite M1000 pro, Tecan). The measured data were used to calculate the IC50 of the growth inhibition using the DRC (dose response curve). The proliferation of cells which were not treated with test substance but were otherwise identically treated was defined as the 100% figure.

For series [4], the system named is NCI-H292: human mucoepidermoid lung carcinoma cells. The series can be described thus: Cytotoxic effect on NCI-H292 cells (MTT/CTG assay). It counts as cell-based. The settings on record: Table 2, active metabolites, MTT. How it is done: as §1
The cells were then incubated in an incubator at 37° C. and 5% carbon dioxide.
The cells were then incubated in an incubator at 37° C. and 5% carbon dioxide. After 48 h, the medium was replaced. […] To this end, the MTT reagent was incubated with the cells for 4 h, followed by lysis of the cells overnight by addition of the detergent. The dye formed was detected at 570 nm (Infinite M1000 pro, Tecan).

As a reminder, the Papp B→A is how fast a substance crosses the layer from the basolateral side. One may read the IC50 as the concentration that gives 50% inhibition. The compound `CC(C)(C)[C@H](c1cc(-c2cc(F)ccc2F)cn1Cc1ccccc1)N(CC[C@H](N)C(=O)NCCC(=O)N[C@H](CCC(=O)O)C(=O)O)C(=O)CO` [Example M3, N-{(2S)-2-Amino-4-[{(1R)-1-[1-benzyl-4-(2,5-difluorophenyl)-1H-pyrrol-2-yl]-2,2-dimethylpropyl}(glycoloyl)amino]butanoyl}-beta-alanyl-D-glutamic acid] returned a basolateral-to-apical permeability (Papp B→A) at 2 h in series [1] of 0.27 ×10⁻⁶ cm/s. The half-maximal inhibitory concentration (IC50) in series [2] came out at 173 nM; in series [3] it was 14.6 nM; in series [4], 174 nM.
